Assay results taken from US8536343B2, “Arylamidine derivative, salt thereof and antifungal agent containing those” (Toyama Chemical Co., Ltd., priority 2005, dated 2013).

Experiments:
Vero cells = assay: Growth inhibition test on Vero cells (XTT); assay type: cell-based; conditions: 50 μg/mL, 3 days culture, XTT absorbance versus control
Experimental: As Test Compounds, the compounds of Example 1 and Example 2 and Comparative Compound 1 were used.
The cytotoxicity of the compounds was evaluated using Vero cells. The respective Test Compounds were dissolved in dimethylsulfoxide (DMSO) to prepare solutions at 10 mg/mL. The solutions were diluted with E′MEM with 10% FBS to a final concentration of 50 μg/mL and placed onto a 96-well plate. The cells were suspended in E′MEM with 10% FBS and seeded onto the 96-well plate at 3000 cells/well and then cultured in a CO2 incubator at 37° C. for 3 days. The growth of Vero cells was evaluated by an assay using 2,3-bis-(2-methoxy-4-nitro-5-sulfophenyl)-5-[(phenylamino)carbonyl]-2H-tetrazolium (inner salt) monosodium salt (“XTT”). Namely, an XTT solution containing 1 mg/mL of XTT and 25 μmol/L of phenazine methosulfate (PMS) was added to each well. After incubating in a CO2 incubator for 2 hours, the absorbance at 450 nm (reference at 655 nm) of the respective wells was measured by a microplate reader. The T/C (%) was calculated from the absorbance ratios of the control (without the Compound) and the respective wells.

[1] = tested on: Aspergillus fumigatus IFM46895; assay: Murine Aspergillus infection model (oral administration); assay type: in vivo; conditions: cyclophosphamide-compromised male mice; 10 mg/kg orally, 7 times; observed 21 days after infection
Experimental: As Test Compounds, the compound of Example 3 and Comparative Compound 1 were used.
Spores of Aspergillus fumigatus IFM46895 were cultured on a potato dextrose agar medium at 30° C. for a week. The recovered spores were suspended in a sterile physiological saline solution containing 0.05% Tween 80, which was then diluted to prepare an inoculum solution.
Male mice (4 week-old, 5 mice/group) were administered intraperitoneally with 200 mg/kg of cyclophosphamide 4 days before infection and 100 mg/kg on the following day after the infection to obtain transient compromised condition. Each 0.2 mL of the inoculum solution was inoculated into the tail vein of each mouse to induce infection (about 1×10^5 CFU/mouse). The Test Compounds were dissolved in a small amount of 0.1 mol/L hydrochloric acid, and the solution was diluted with a sterile distilled water to obtain a 1 mg/mL solution. The solution was administered orally at the dose of 10 mL/kg body weight of mouse (10 mg/kg body weight). The administrations were conducted once 2 hours after the infection and once daily for the following 6 days, totaling 7 times. To a group receiving no Test Compounds, an equal amount of a sterile physiological saline solution was administered. Viability of the mice was observed and recorded for 21 days after infection.

human CYP3A4 = target: T1, human CYP3A4 (Homo sapiens, UniProt P08684); assay: Inhibitory effect on CYP3A4; assay type: in vitro ADME; conditions: microsome from insect cells expressing human CYP3A4, dibenzylfluorescein, 37° C. 15 min, 72 to 0.0329 μmol/L
T1 construct: host or cells: insect cells (microsomes)
T1 sequence (P08684 whole entry): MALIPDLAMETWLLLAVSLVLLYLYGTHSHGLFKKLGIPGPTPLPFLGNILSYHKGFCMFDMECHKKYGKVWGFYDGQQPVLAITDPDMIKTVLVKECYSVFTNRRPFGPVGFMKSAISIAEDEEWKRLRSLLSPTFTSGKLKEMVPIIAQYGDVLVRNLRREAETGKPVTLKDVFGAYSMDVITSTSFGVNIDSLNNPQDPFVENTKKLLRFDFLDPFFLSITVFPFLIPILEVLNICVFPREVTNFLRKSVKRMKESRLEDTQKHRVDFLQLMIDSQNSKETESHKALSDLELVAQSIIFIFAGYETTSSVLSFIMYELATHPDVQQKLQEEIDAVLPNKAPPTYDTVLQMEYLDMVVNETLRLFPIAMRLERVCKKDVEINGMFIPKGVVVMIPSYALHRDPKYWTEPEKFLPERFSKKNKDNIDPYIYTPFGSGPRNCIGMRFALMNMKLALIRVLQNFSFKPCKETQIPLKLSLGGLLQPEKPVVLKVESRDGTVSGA
Experimental: Inhibitory effects of the compound of Example 3 and Comparative Compound 1 on human hepatic drug-metabolizing enzyme CYP3A4 were compared. A microsome prepared from insect cells expressing human CYP3A4 was used. Dibenzylfluorescein was used as a substrate. The reaction was conducted in a phosphate buffer solution (100 mmol/L, pH 7.4) including final concentrations of 2.5 nmol/L for the enzyme, 1.0 μmol/L for the substrate, 1.55 mmol/L for nicotinamide adenine dinucleotide phosphate oxidized form (NADP+), 3.3 mmol/L for glucose-6-phosphate, 3.3 mmol/L for magnesium chloride and 0.4 Units/mL for glucose-6-phosphate dehydrogenase (G6PDH). The concentrations of the respective compounds in the reaction solution were prepared in a 3-fold dilution series with a final concentration range of 72 to 0.0329 μmol/L. The reaction solutions were incubated at 37° C. for 15 min. Then the reaction was terminated by a 2 mol/L sodium hydroxide aqueous solution, and the solution was further incubated at 37° C. for 2 hours. The enzyme activity was determined by measuring fluorescence with wavelength of 535 nm using excitation wavelength of 485 nm. The inhibitory effect was expressed as IC50. Clotrimazole was used as a positive control.

human CYP2C19 = target: T2, human CYP2C19 (Homo sapiens, UniProt P33261); assay: Inhibitory effect on CYP2C19; assay type: in vitro ADME; conditions: microsome from insect cells expressing human CYP2C19, dibenzylfluorescein, 37° C. 30 min, 72 to 0.0329 μmol/L
T2 construct: host or cells: insect cells (microsomes)
T2 sequence (P33261 whole entry): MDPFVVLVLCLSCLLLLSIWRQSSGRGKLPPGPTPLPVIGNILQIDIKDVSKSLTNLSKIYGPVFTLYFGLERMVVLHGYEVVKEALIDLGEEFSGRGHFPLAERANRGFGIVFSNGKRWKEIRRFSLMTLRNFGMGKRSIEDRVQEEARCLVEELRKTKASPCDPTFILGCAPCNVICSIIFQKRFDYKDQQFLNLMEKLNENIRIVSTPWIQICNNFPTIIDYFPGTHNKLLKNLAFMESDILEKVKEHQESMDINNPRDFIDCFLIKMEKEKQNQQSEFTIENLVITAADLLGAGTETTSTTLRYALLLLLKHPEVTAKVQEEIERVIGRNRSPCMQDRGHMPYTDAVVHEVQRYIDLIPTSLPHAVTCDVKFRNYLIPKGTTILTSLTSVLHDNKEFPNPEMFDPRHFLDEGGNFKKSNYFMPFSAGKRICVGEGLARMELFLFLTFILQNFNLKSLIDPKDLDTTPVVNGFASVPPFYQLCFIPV
Experimental: Inhibitory effects of the compound of Example 3 and Comparative Compound 1 on human hepatic drug-metabolizing enzyme CYP2C19 were compared. A microsome prepared from insect cells expressing human CYP2C19 was used. Dibenzylfluorescein was used as a substrate. The reaction was conducted in a phosphate buffer solution (100 mmol/L, pH 7.4) including final concentrations of 15 nmol/L for the enzyme, 1.0 μmol/L for the substrate, 1.55 mmol/L for nicotinamide adenine dinucleotide phosphate oxidized form (NADP+), 3.3 mmol/L for glucose-6-phosphate, 3.3 mmol/L for magnesium chloride and 0.4 Units/mL for glucose-6-phosphate dehydrogenase (G6PDH). The concentrations of the respective compounds in the reaction solution were prepared in a 3-fold dilution series with a final concentration range of 72 to 0.0329 μmol/L. The reaction solutions were incubated at 37° C. for 30 min. Then the reaction was terminated by a 2 mol/L sodium hydroxide aqueous solution, and the reactant was further incubated at 37° C. for 2 hours. The enzyme activity was determined by measuring fluorescence with wavelength of 535 nm using excitation wavelength of 485 nm. The inhibitory effect was represented as IC50. Tranylcypromine was used as a positive control.

human CYP2D6 = target: T3, human CYP2D6 (Homo sapiens, UniProt P10635); assay: Inhibitory effect on CYP2D6; assay type: in vitro ADME; conditions: for Inhibitory effect on CYP2D6 (in words): microsome from insect cells expressing human CYP2D6, 72 to 0.0329 μmol/L
T3 construct: host or cells: insect cells (microsomes)
T3 sequence (P10635 whole entry): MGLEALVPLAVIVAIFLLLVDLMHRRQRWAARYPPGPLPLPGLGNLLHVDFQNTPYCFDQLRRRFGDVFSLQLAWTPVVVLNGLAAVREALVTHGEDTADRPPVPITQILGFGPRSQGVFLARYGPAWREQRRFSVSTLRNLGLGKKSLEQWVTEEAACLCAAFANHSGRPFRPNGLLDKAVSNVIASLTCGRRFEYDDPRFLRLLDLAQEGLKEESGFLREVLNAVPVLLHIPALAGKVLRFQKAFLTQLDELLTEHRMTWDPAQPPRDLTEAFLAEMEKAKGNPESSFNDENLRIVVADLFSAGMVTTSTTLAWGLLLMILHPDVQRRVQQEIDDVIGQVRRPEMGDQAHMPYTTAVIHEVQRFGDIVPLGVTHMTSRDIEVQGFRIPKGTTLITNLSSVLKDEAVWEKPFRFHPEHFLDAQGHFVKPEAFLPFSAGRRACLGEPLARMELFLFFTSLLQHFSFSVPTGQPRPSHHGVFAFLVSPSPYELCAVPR
Experimental: Inhibitory effects of the compound of Example 3, Comparative Compound 1, Comparative Compound 2 and Comparative Compound 3 on human hepatic drug-metabolizing enzyme CYP2D6 were compared. A microsome prepared from insect cells expressing human CYP2D6 was used, and a substrate was 3-[2-(N,N-diethyl-N-methylammonium)ethyl]-7-methoxy-4-methylcoumarin iodide. The reaction was conducted in a phosphate buffer solution (100 mmol/L, pH 7.4) including final concentrations of 20 nmol/L for the enzyme, 1.5 μmol/L for the substrate, 1.55 mmol/L for nicotinamide adenine dinucleotide phosphate oxidized form (NADP+), 3.3 mmol/L for glucose-6-phosphate, 3.3 mmol/L for magnesium chloride and 0.4 Units/mL for glucose-6-phosphate dehydrogenase (G6PDH). The concentrations of the respective compounds in the reaction solution were prepared in a 3-fold dilution series with a final concentration range of 72 to 0.0329 μmol/L. The reaction solutions were incubated at 37° C. for 30 min. Then the reaction was terminated by a 80% acetonitrile solution (containing tris at a final concentration of 0.1 mol/L), and the enzyme activity was determined by measuring fluorescence with wavelength of 465 nm using excitation wavelength of 400 nm. The inhibitory effect was expressed as IC50. Quinidine was used as a positive control.

[2] = Repeated intravenous dose toxicity study in mice (plasma AST, ALT); assay type: in vivo; conditions: ICR male mice, i.v. once daily for 3 days (25 mg/kg or 6.25 mg/kg), day 1 after completion; relative to saline control
Experimental: As Test Compounds, the compound of Example 3, Comparative Compound 2 and Comparative Compound 3 were used.
A repeated intravenous dose toxicity study was conducted using ICR strain male mice (6 week-old, 5 mice/group). The administration solutions were prepared by adding 3-fold molar amount of hydrochloric acid to the respective Test Compounds, and further adding a sterile physiological saline solution. The compounds of Example 3 and Comparative Compound 2, respectively at 25 mg/kg, and Comparative Compound 1 at 6.25 mg/kg were administered into the tail vein once daily for 3 days. To the control group, a sterile physiological saline solution was administered.
On day 1 after the completion of the administration, each mouse was etherized. Blood samples were taken from the abdominal vein using an injection syringe containing heparin as an anticoagulant (Novo-Heparin 1,000 units for injection, Aventis Pharma Ltd.), and the samples were centrifuged (3,300 rpm, 4° C., 10 min; Kubota Model 5900) to obtain the plasma. The blood biochemical tests with respect to aspartate aminotransferase (AST) and alanine aminotransferase (ALT) for the samples were conducted according to the JSCC consensus measuring method. The values for the Test Compounds and Comparative Compounds were calculated based on the values for the control (administration of a sterile physiological saline solution) as 100.

Structure (SMILES) | Cytotoxicity T/C (%) (Vero cells) | ALT (alanine aminotransferase) in plasma [2] | AST (aspartate aminotransferase) in plasma [2] | Inhibitory effect on CYP2D6 (in words) (human CYP2D6) | other results
N/C(=N\C(=O)OCc1ccccc1)c1ccc(OCCCN2CCN(CCCOc3ccc(/C(N)=N/C(=O)OCc4ccccc4)cc3)CC2)cc1 [Comparative Compound 1, reference compound] | 1% |  |  |  | mice survived [1]: 20%; IC50 (human CYP3A4): 4.73 µM; IC50 (human CYP2C19): 4.36 µM; IC50 (human CYP2D6; microsome from insect cells expressing human CYP2D6, fluorescent substrate, 37° C. 30 min, 72 to 0.0329 μmol/L): 0.68 µM
CCOC(=O)/N=C(\N)c1ccc(OCCCC2CCN(CCCOc3ccc(/C(N)=N/C(=O)OCC)cc3)CC2)cc1 [Comparative Compound 2] |  | increases | increases | inhibited human CYP2D6 | 
CCCCCOC(=O)/N=C(\N)c1ccc(OCCCN2CCC(CCCOc3ccc(C(N)NC(=O)OCCCCC)cc3)CC2)cc1 (stereo not shown) [Comparative Compound 3] |  | increases | increases | inhibited human CYP2D6 | 
CCCOC(=O)/N=C(\N)c1ccc(OCCCC2CCN(CCCOc3ccc(/C(N)=N/C(=O)OCCC)cc3)CC2)cc1 [Example 1, 4-{3-[4-(3-{4-[amino(propoxycarbonylimino)methyl]phenoxy}propyl)-1-piperidinyl]propoxy}-N′-(propoxycarbonyl)benzamidine] | 100% |  |  |  | 
CC(C)OC(=O)/N=C(\N)c1ccc(OCCCC2CCN(CCCOc3ccc(/C(N)=N/C(=O)OC(C)C)cc3)CC2)cc1 [Example 2, 4-{3-[4-(3-{4-[amino(isopropoxycarbonylimino)methyl]phenoxy}propyl)-1-piperidinyl]propoxy}-N′-(isopropoxycarbonyl)benzamidine] | 100% |  |  |  | 
